From publication PMC12146700 (Proceedings of the National Academy of Sciences of the …, 2025) come the findings set out here.

The target of assay [1] is T1, WT ATP8B1 fragment (residues 803 to 880) (Homo sapiens, UniProt O43520, K824A/R832A/R833A/R835A).
T1 sequence (O43520 803-880 K824A/R832A/R833A/R835A): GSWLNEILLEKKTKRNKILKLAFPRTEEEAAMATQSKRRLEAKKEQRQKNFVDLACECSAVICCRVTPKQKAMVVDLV
The assay is described as follows: surface plasmon resonance, protein covalently coupled on CM5 chip. The format is binding. The following applies: PIP2 injected at different concentrations; acyl chains not told. (In SPR one partner is held on a chip, and binding of the other changes the refractive index at the surface.)

For assay [2], the target named is T2, WT ATP8B1 fragment (residues 803 to 880) (Homo sapiens, UniProt O43520).
T2 sequence (O43520 803-880): T1 sequence (O43520 803-880 K824A/R832A/R833A/R835A) with A22K, A30R, A31R, A33R
The assay is described as above. Particulars: PIP2 injected at different concentrations; acyl chains not told. The format is binding.

Assay [3] addresses T3, human ATP8B1 (full-length, N-terminal GST-tagged) (Homo sapiens, UniProt O43520).
T3 sequence (O43520 1-1251): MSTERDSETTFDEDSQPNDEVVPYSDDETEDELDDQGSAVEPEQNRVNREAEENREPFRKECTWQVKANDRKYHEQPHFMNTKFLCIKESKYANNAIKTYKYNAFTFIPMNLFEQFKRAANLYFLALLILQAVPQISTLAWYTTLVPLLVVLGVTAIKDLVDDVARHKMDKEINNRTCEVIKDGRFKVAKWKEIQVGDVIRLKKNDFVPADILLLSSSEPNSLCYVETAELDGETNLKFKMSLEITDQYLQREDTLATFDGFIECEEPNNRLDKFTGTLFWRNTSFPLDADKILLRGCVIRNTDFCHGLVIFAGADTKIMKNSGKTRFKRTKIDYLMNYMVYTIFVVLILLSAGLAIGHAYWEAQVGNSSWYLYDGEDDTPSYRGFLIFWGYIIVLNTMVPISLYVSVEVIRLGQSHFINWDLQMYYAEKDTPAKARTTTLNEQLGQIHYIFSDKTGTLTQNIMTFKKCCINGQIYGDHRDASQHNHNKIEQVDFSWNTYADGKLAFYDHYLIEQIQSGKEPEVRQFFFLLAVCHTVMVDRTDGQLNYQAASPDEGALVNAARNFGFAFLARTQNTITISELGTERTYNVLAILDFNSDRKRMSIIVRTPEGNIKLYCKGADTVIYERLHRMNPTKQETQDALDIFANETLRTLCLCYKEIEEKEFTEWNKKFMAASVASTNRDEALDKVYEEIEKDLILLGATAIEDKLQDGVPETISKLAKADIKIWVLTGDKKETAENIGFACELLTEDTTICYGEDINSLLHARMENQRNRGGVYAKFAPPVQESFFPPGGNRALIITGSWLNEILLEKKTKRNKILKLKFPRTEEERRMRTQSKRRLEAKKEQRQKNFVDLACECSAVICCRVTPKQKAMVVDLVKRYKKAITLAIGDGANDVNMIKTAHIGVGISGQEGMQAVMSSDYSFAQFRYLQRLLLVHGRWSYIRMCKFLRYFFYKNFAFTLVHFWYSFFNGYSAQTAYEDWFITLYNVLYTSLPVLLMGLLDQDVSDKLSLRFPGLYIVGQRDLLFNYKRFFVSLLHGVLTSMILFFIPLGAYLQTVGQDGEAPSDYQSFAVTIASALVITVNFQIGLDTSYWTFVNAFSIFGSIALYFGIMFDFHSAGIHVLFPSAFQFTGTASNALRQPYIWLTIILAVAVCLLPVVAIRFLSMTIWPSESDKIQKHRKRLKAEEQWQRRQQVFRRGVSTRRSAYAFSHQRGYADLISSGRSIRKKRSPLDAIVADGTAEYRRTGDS
Description: ATPase activity stimulated by phospholipid. The format is biochemical. Particulars: activation of ATPase activity; acyl chains not told.

Positions count from the first letter of the chain named.

Regarding PIP2, the dissociation constant (Kd) (as a rule, a measure of binding affinity in units of concentration) was ~63.6 µM in assay [1] and ~11.5 µM in assay [2]. In addition, the EC50 – broadly, the concentration needed to bring the measured effect to its halfway point – in assay [3] turned out to be 232 ± 35.2 µM.
